Measured values published in ChEMBL document CHEMBL5131511, “Design of artificial α-helical peptides targeting both gp41 deep pocket and subpocket as potent HIV-1 fusion inhibitors” (Eur J Med Chem, 2022).
The source made the active and inactive calls. The calls are words filed in the database; no cut-off is given here. Where a SMILES comes first, the peptide text is derived from it. [ ]: non-standard residue; d: D form. The star is where a group is joined. O(cholesteryl) = CC(C)CCC[C@@H](C)[C@H]1CC[C@H]2[C@@H]3CC=C4C[C@@H](O*)CC[C@]4(C)[C@H]3CC[C@]12C; PEG24 = NCCOCCOCCOCCOCCOCCOCCOCCOCCOCCOCCOCCOCCOCCOCCOCCOCCOCCOCCOCCOCCOCCOCCOCCOCCC(=O)O; PEG12 = NCCOCCOCCOCCOCCOCCOCCOCCOCCOCCOCCOCCOCCC(=O)O; PEG8 = NCCOCCOCCOCCOCCOCCOCCOCCOCCC(=O)O

Columns and labels:
[1] = test system: Human immunodeficiency virus 1; test: Antiviral activity against HIV-1 IIIB (B, X4) assessed as inhibition of viral replication measured after 4 days by ELISA; assay type: functional, organism-based; conditions: Human immunodeficiency virus 1, IIIB (B, X4), 96 h
[2] = test system: Human immunodeficiency virus 1; test: Binding affinity to HIV1 gp41 NHR target surrogate T21 assessed as sedimentation coefficient incubated for 30 mins measured for 0.16 to 7 hrs by Sedimentation velocity analysis; conditions: time 0.56-7.5 hrs
MT2 = test: Cytotoxicity against human MT2 cells upto 10 uM incubated for 48 hrs by CCK-8 assay; assay type: toxicity, cell-based; conditions: mt2, 48 h
[3] = test system: Human immunodeficiency virus 1; test: Antiviral activity against T20-sensitive HIV-1 D36G assessed as inhibition of viral replication measured after 4 days by ELISA; assay type: functional, organism-based
[4] = test system: Human immunodeficiency virus 1; test: Inhibition of HIV-1 replication assessed as inhibition of gp41 six-helix bundle formation between T21 and CP32 incubated for 30 mins followed by CP32 addition measured after 30 mins by N-PAGE analysis; assay type: functional; conditions: dose <= 120.0 µM, time 1.0 hrs, DDE = dose-dependent effect
[5] = test system: Human immunodeficiency virus 1; test: Antiviral activity against HIV-1 IIIB assessed as inhibition of viral replication measured after 4 days by ELISA; assay type: functional, organism-based; conditions: Human immunodeficiency virus 1, IIIB, 96 h
[6] = Selectivity ratio of EC50 for antiviral activity against T20-resistant HIV-1 V38E/N42S to EC50 for antiviral activity against T20-sensitive HIV-1 D36G; assay type: functional
[7] = test system: Human immunodeficiency virus 1; test: Antiviral activity against T20-resistant HIV-1 V38A/N42T assessed as inhibition of viral replication measured after 4 days by ELISA; assay type: functional, organism-based
[8] = test system: Human immunodeficiency virus 1; test: Antiviral activity against T20-resistant HIV-1 V38E/N42S assessed as inhibition of viral replication measured after 4 days by ELISA; assay type: functional, organism-based
[9] = test system: Human immunodeficiency virus 1; test: Binding affinity to HIV1 gp41 NHR target surrogate N36 assessed as alpha-helicity at 10 uM incubated for 30 mins by CD spectroscopy (reference value: 26 %)
[10] = Selectivity ratio of EC50 for antiviral activity against T20-resistant HIV-1 V38A/N42T to EC50 for antiviral activity against T20-sensitive HIV-1 D36G; assay type: functional
[11] = Cytotoxicity against human CEMx174 5.25M7 cells upto 10 uM incubated for 48 hrs by CCK-8 assay; assay type: toxicity, cell-based; conditions: cemx174 5.25m7, 48 h
[12] = test system: Human immunodeficiency virus 1; test: Binding affinity to HIV1 gp41 NHR target surrogate N36 assessed as melting temperature at 10 uM incubated for 30 mins by CD spectroscopy
[13] = test system: Human immunodeficiency virus 1; test: Binding affinity to HIV1 gp41 NHR target surrogate T21 assessed as melting temperature at 10 uM incubated for 30 mins by CD spectroscopy
[14] = Alpha-helicity of compound in PBS buffer at pH 7.4 at 10 uM incubated for 30 mins by CD spectroscopy relative to control; assay type: physicochemical; conditions: pH 7.4, 0.5 h
[15] = test system: Human immunodeficiency virus 1; test: Binding affinity to HIV1 gp41 NHR target surrogate T21 assessed as alpha-helicity at 10 uM incubated for 30 mins by CD spectroscopy (reference value: 66 %)
[16] = test system: Human immunodeficiency virus 1; test: Binding affinity to HIV1 gp41 NHR target surrogate T21 at 50 uM incubated for 30 mins by N-PAGE analysis
[17] = test system: Human immunodeficiency virus 1; test: Binding affinity to HIV1 gp41 NHR target surrogate T21 assessed as binding constant, K by isothermal titration calorimetry

In the case of “Ac-QEENNKKWEEWDKKIEELIKKSEELIKKIEEQIKK-NH2”, the EC50 [1] is reported as 68.7 nM.

In the case of CC[C@H](C)[C@H](NC(=O)[C@H](CCC(N)=O)NC(=O)[C@H](CCC(=O)O)NC(=O)[C@H](CCC(=O)O)NC(=O)[C@@H](NC(=O)[C@H](CCCCN)NC(=O)[C@H](CCCCN)NC(=O)[C@@H](NC(=O)[C@H](CC(C)C)NC(=O)[C@H](CCC(=O)O)NC(=O)[C@H](CCC(=O)O)NC(=O)[C@H](CO)NC(=O)[C@H](CCCCN)NC(=O)[C@H](CCCCN)NC(=O)[C@@H](NC(=O)[C@H](CC(C)C)NC(=O)[C@H](CCC(=O)O)NC(=O)[C@H](CCC(=O)O)NC(=O)[C@@H](NC(=O)[C@H](CCCCN)NC(=O)[C@H](CCCCN)NC(=O)[C@H](CO)NC(=O)[C@H](Cc1c[nH]c2ccccc12)NC(=O)[C@H](CCC(=O)O)NC(=O)[C@H](CCC(=O)O)NC(=O)[C@H](Cc1c[nH]c2ccccc12)NC(=O)[C@H](CCCCN)NC(=O)[C@H](CCCCN)NC(=O)[C@@H](NC(=O)[C@H](CO)NC(=O)[C@H](CCC(=O)O)NC(=O)[C@H](CCC(=O)O)NC(=O)[C@H](CCC(N)=O)NC(C)=O)[C@@H](C)CC)[C@@H](C)CC)[C@@H](C)CC)[C@@H](C)CC)[C@@H](C)CC)C(=O)N[C@@H](CCCCN)C(=O)N[C@@H](CCCCN)C(=O)NCCOCCOCCOCCOCCOCCOCCOCCOCCOCCOCCOCCOCCOCCOCCOCCOCCOCCOCCOCCOCCOCCOCCOCCOCCC(=O)N[C@@H](CS)C(=O)O[C@H]1CC[C@@]2(C)C(=CC[C@H]3[C@@H]4CC[C@H]([C@H](C)CCCC(C)C)[C@@]4(C)CC[C@@H]32)C1 (Ac-QEESIKKWEEWSKKIEELIKKSEELIKKIEEQIKK[PEG24]C-{O(cholesteryl)}), the S20,w [2] is reported as 2.43 S, the Activity (MT2) is reported as “Non-Toxic” and the EC50 [3] is reported as 1.62 nM. The inhibition [4] was “Dde”, the EC50 [5] was 5.21 nM and the “Ratio EC50” value [6] was 3.1. For the same molecule, the EC50 [7] was 2.38 nM, the EC50 [8] was 5.07 nM and the Activity [9] was 81%. The “Ratio EC50” value [10] was 1.5, the Activity [11] was “Non-Toxic” and the Tm [12] was 50 °C. It also gave a Tm [13] of 68 °C, an Activity [14] of 56% and an Activity [15] of 94%.

In the case of “Ac-QEENIKKWEEWDKKIEELIKKSEELIKKIEEQIKK-NH2”, the EC50 [1] is reported as 65.7 nM.

With CC[C@H](C)[C@H](NC(=O)[C@H](CCC(N)=O)NC(=O)[C@H](CCC(=O)O)NC(=O)[C@H](CCC(=O)O)NC(=O)[C@@H](NC(=O)[C@H](CCCCN)NC(=O)[C@H](CCCCN)NC(=O)[C@@H](NC(=O)[C@H](CC(C)C)NC(=O)[C@H](CCC(=O)O)NC(=O)[C@H](CCC(=O)O)NC(=O)[C@H](CO)NC(=O)[C@H](CCCCN)NC(=O)[C@H](CCCCN)NC(=O)[C@@H](NC(=O)[C@H](CC(C)C)NC(=O)[C@H](CCC(=O)O)NC(=O)[C@H](CCC(=O)O)NC(=O)[C@@H](NC(=O)[C@H](CCCCN)NC(=O)[C@H](CCCCN)NC(=O)[C@H](CO)NC(=O)[C@H](Cc1c[nH]c2ccccc12)NC(=O)[C@H](CCC(=O)O)NC(=O)[C@H](CCC(=O)O)NC(=O)[C@H](Cc1c[nH]c2ccccc12)NC(=O)[C@H](CCCCN)NC(=O)[C@H](CCCCN)NC(=O)[C@@H](NC(=O)[C@H](CO)NC(=O)[C@H](CCC(=O)O)NC(=O)[C@H](CCC(=O)O)NC(=O)[C@H](CCC(N)=O)NC(C)=O)[C@@H](C)CC)[C@@H](C)CC)[C@@H](C)CC)[C@@H](C)CC)[C@@H](C)CC)C(=O)N[C@@H](CCCCN)C(=O)N[C@@H](CCCCN)C(=O)NCCOCCOCCOCCOCCOCCOCCOCCOCCOCCOCCOCCOCCC(=O)N[C@@H](CS)C(=O)O[C@H]1CC[C@@]2(C)C(=CC[C@H]3[C@@H]4CC[C@H]([C@H](C)CCCC(C)C)[C@@]4(C)CC[C@@H]32)C1 (Ac-QEESIKKWEEWSKKIEELIKKSEELIKKIEEQIKK[PEG12]C-{O(cholesteryl)}) the EC50 [5] was 5.22 nM.

For “Ac-QEESIKKWEEWSKKIEELIKKSEELIKKIEEQIKK-NH2”, the EC50 [1] was 64.5 nM, the Activity [16] was “Active” and the Activity [9] was 92%. The K [17] was 1.59 10^5/M, the Tm [12] was 52 °C and the Tm [13] was 74 °C. It also gave an Activity [14] of 63% and an Activity [15] of 100%.

In the case of CC[C@H](C)[C@H](NC(=O)[C@H](CCC(N)=O)NC(=O)[C@H](CCC(=O)O)NC(=O)[C@H](CCC(=O)O)NC(=O)[C@@H](NC(=O)[C@H](CCCCN)NC(=O)[C@H](CCCCN)NC(=O)[C@@H](NC(=O)[C@H](CC(C)C)NC(=O)[C@H](CCC(=O)O)NC(=O)[C@H](CCC(=O)O)NC(=O)[C@H](CO)NC(=O)[C@H](CCCCN)NC(=O)[C@H](CCCCN)NC(=O)[C@@H](NC(=O)[C@H](CC(C)C)NC(=O)[C@H](CCC(=O)O)NC(=O)[C@H](CCC(=O)O)NC(=O)[C@@H](NC(=O)[C@H](CCCCN)NC(=O)[C@H](CCCCN)NC(=O)[C@H](CO)NC(=O)[C@H](Cc1c[nH]c2ccccc12)NC(=O)[C@H](CCC(=O)O)NC(=O)[C@H](CCC(=O)O)NC(=O)[C@H](Cc1c[nH]c2ccccc12)NC(=O)[C@H](CCCCN)NC(=O)[C@H](CCCCN)NC(=O)[C@@H](NC(=O)[C@H](CO)NC(=O)[C@H](CCC(=O)O)NC(=O)[C@H](CCC(=O)O)NC(=O)[C@H](CCC(N)=O)NC(C)=O)[C@@H](C)CC)[C@@H](C)CC)[C@@H](C)CC)[C@@H](C)CC)[C@@H](C)CC)C(=O)N[C@@H](CCCCN)C(=O)N[C@@H](CCCCN)C(=O)NCCOCCOCCOCCOCCOCCOCCOCCOCCC(=O)N[C@@H](CS)C(=O)O[C@H]1CC[C@@]2(C)C(=CC[C@H]3[C@@H]4CC[C@H]([C@H](C)CCCC(C)C)[C@@]4(C)CC[C@@H]32)C1 (Ac-QEESIKKWEEWSKKIEELIKKSEELIKKIEEQIKK[PEG8]C-{O(cholesteryl)}), the EC50 [5] is reported as 21.2 nM.
